In one data set the test system is platelet adhesivity. The experiment in a line: in vivo platelet adhesivity in thrombin-sensitized rabbit. To be noted: thrombin 20 U i.v. As for the experimental part:
(§1) The technique used is that described in the study "Disseminated and localized intravascular coagulations" of C. Raby, Masson et Cie, 1970, p. 91-93.
(§2) The parameter used in this technique is the level of platelet adhesivity. The blood to be tested is run through a column of glass beads. Platelet counts are carried out on the blood before and after passage respectively through the glass beads. The difference between these two counts enables the level of platelet adhesivity to be estimated. Comparison of the adhesivity ratios, measured in the treated animals and in the controlled animals, enables the effect of the product under test to be estimated.
In the in vivo test the animal to be tested (the rabbit) is injected with thrombin (20 U) by the intravenous route, for the purpose of sensitizing the platelets, and the product under study is then injected. The behavior of the platelets is studied by samples taken before and after administration of the product under study.
(§3) Papaverine thienyl-2-carboxylate has, in all these tests, been applied in the dissolved state in a 1 % aquous solution of methanol in isotonic chloride solution, in the proportion of 13 mg of papaverine thienyl-2-carboxylate per 100 ml of this solution.
30 Animals were treated in the in vivo tests:
10 animals with the thrombin alone (control animals), […]

For data set [1], the system named is unilateral cerebral oedema. In words: unilateral cerebral oedema: cortical electrogenesis ("R" index) and residual cortical reactivity, intraduodenal route. It counts as in vivo, rabbit. As for the experimental part:
The effect of a medicament on the oxygen and glucose metabolisms is estimated, in this test, by the reduction in the deleterious effects of oedema on certain parameters with respect to the controls.
The technique used is that described in the work "Aggressology" 1972, 13, Vol. IV, p. 257-259 (M.G. Borzex, M. Labos, J. Cahn). The principle of the test consists of producing unilateral ablation of a bone flap of 7 to 10 mm diameter in the occipital region. The incision, 48 hours later, of the dura mater or dural (membrane which surrounds the brain) results in the formation of an oedema.
Two essential parameters are selected to judge the seriousness of the oedematous effect and to subsequently permit estimation of the effects of the compound under study: electrogenesis on the "injured" hemisphere and the development of residual cortical reactivity in this same hemisphere.
The electrogenesis is judged by variations in the index (R), defined as the ratio of the number of rapid rhythms (theta arousal rhythm) to the number of slow waves of the electrocorticogram (determined by electroencephalography). On the injured side, the size of the slow waves tends to increase and that of the thetarhythm connected with the arousal response to be eliminated.
The residual cortical reactivity of the hemisphere carrying the cerebral oedema expresses the percentage of reactivity which persists with regard to a sensorial stimulation (auditive stimulation or nociceptive stimulation of the cutanous nerve ends by pinching of the dorsal skin) despite the oedematous degradation.
An active medicament tends to increase the value of the "R" index and to reestablish the residual cortical reactivity of the animals which have undergone the operation. The activities of the medicament expressed in % growth for the index R, and in % growth for the residual cortical reactivity, are compared with results observed in the controls.
The study was carried out on 42 male rabbits, active, of average weight 2.5 kg (and in eight control animals). The product to be tested (papaverine thienyl-2-carboxylate) was administered by the intraduodenal route, […] after ablation of the bone flap and just before the incision of the dural. This route of administration was selected since it is equivalent to the administration by the oral route.
The rabbits studied were divided in the following manner:
a series of eight "control" animals receiving 2 ml/kg of isotonic chloride solution;
three series of eight rabbits, each having received respectively 5, 10 and 20 mg/kg of papaverine hydrochloride;
two series of eight animals, each receiving respectively 6.2 and 12.4 mg/kg of papaverine thienyl-2-carboxylate (dissolved in alcoholized water, containing 1 ml of alcohol per 30 ml of water);
lastly, two rabbits receiving 2 mg/kg of papaverine hydrochloride dissolved in alcoholized water.
The doses of 5 and 10 mg/kg of papaverine hydrochloride correspond respectively to doses of 6.2 and 12.4 mg/kg of papaverine thienyl-2-carboxylate, if reduced to the corresponding doses of papaverine-base (respectively 4.51 and 9.02 mg/kg).
The development of the two above indicated parameters (expressed below in average values) is observed for 30 hours following the incision of the dural.

A further data set can be described thus: LD50 by the oral route. To be noted: in vivo, mouse. The text has this:
Study of the LD50 (by the oral route) in the mouse has established the complete inoccuousness of papaverine thienyl-carboxylates.

Data set [2] relates to platelet adhesivity; disturbances of electrogenesis at the level of the brain. In words: overall comparison of papaverinic activity (platelet adhesivity, brain disturbances, cortical reactivity). To be noted: associated with / expressed as papaverine base.
Data set [3] concerns platelet adhesivity (blood). The experiment in a line: in vitro platelet adhesivity (glass bead column, Raby technique). It is filed as cell-based. To be noted: at equal doses expressed in terms of papaverine base. On the procedure:
as §1, §2
In in vitro test the levels of platelet adhesivity measured on control specimens of blood and on blood specimens to which have previously been added doses of the product under test, are compared.
as §3

Another data set is described as follows: solubility. It counts as physicochemical.
The conditions of data set [4]: administration in repeated doses; cited from earlier work.

SMILES strings stand for the structures. “Also recorded” adds a separate entry of the source. Where a name gives a salt, the structure may show the parent alone.

We go through five compounds from patent US4055648A, “Papaverine thienyl-carboxylates and medicaments containing them” (Choay S.A., priority 1974, dated 1977).

Regarding `COc1ccc(Cc2nccc3cc(OC)c(OC)cc23)cc1OC` [papaverine citrate, reference compound], in the data set on platelet adhesivity (32 γ/ml (20 γ/ml papaverine base)), the “effect on platelet adhesivity” value is “inactive”.
For the compound `COc1ccc(Cc2nccc3cc(OC)c(OC)cc23)cc1OC` [papaverine hydrochloride, reference compound], the “activity in cerebral oedema” value in data set [1] (5 mg/kg intraduodenal (4.51 mg/kg papaverine base), hydrochloride) is “practically inactive; also recorded: practically ineffective”. Also, in data set [1] (10 mg/kg intraduodenal), the “treated animals with biological effect” value is “about 50%”. Besides, the “rabbits with improved residual cortical reactivity” value in data set [1] (10 mg/kg intraduodenal, 2 hours following administration) is “four rabbits out of eight”. Further, the “improvement of residual cortical reactivity (average)” value in data set [1] (10 mg/kg intraduodenal, 2 hours following administration, average in eight rabbits) worked out at 29%. Besides, the “rise in the "R" index” value in data set [1] (10 mg/kg intraduodenal, between 4 and 6 hours) is reported as 14%; in data set [1] (10 mg/kg intraduodenal, first 4 hours), 19%. Further, in data set [1] (20 mg/kg intraduodenal), the “animals affected ("R" ratio)” value is given as “six animals in eight”. For the same compound, the “improvement of residual cortical reactivity” value is on record as “about 23%” in data set [1] (20 mg/kg intraduodenal, between 4 and 6 hours); “improved in the same proportion” in data set [1] (20 mg/kg intraduodenal, during 4 hours, same proportion as "R" ratio).
For `COc1ccc(Cc2nccc3cc(OC)c(OC)cc23)cc1OC` [papaverine thienyl-2-carboxylate], in “LD50 by the oral route”, the LD50 at 48 h is 1300 mg/kg. Further, the “effect on platelet adhesivity” value in the data set on platelet adhesivity (2.88 γ/ml (2.10 γ/ml papaverine base)) is given as “act favourably on the adhesivity rate of the platelets”. Besides, in data set [1] (6.2 mg/kg intraduodenal), the “activity in cerebral oedema” value is on record as “active” and the “effect compared with papaverine hydrochloride 20 mg/kg” value was “rather similar to that exerted by a dose of 20 mg/kg of papaverine hydrochloride”. For the same compound, in data set [1] (6.2 mg/kg intraduodenal (4.51 mg/kg papaverine base)), the “rabbits with very distinct improvement of the two parameters” value was “five rabbits out of eight”. Also, the “extension in the duration of the arousal reactions on the injured hemisphere” value in data set [1] (6.2 mg/kg intraduodenal, between second and fourth hours, average in eight rabbits) is given as 45.4%. The “duration of improvement of the two parameters” value in data set [1] (6.2 mg/kg intraduodenal, five rabbits out of eight) was “at least 4 hours”. Besides, in data set [1] (12.4 mg/kg intraduodenal), the “effect compared with papaverine hydrochloride 20 mg/kg” value is “slightly more intense effect and more prolonged than a dose twice as great of papaverine hydrochloride”; the “persistence of improvement of residual cortical reactivity” value is given as “remaining substantially stable during the first 6 hours”; the “rabbits with particularly distinct effect” value is reported as “seven rabbits out of eight”. For the same compound, the “average rise in the "R" index” value in data set [1] (12.4 mg/kg intraduodenal (9.02 mg/kg papaverine base)) was found to be 38.5%. Also, the “average improvement of residual cortical reactivity” value in data set [1] (12.4 mg/kg intraduodenal, maximum effect between 2 and 4 hours, eight rabbits) was 54.2%. In addition, the “activity on residual cortical reactivity compared with papaverine hydrochloride” value in data set [1] (intraduodenal) was “much more marked activity”. In addition, the “activity compared with papaverine hydrochloride” value in data set [1] (intraduodenal, collected results) is on record as “distinctly more active than papaverine hydrochloride”. In addition, the “papaverinic activity compared with known papaverine salts” value in data set [2] is “to a much higher degree; also recorded: distinctly higher than the salts of papaverine used until now”. Moreover, the “activity relative to known salts of papaverine” value in data set [3] was “considerably greater than that of the known salts of papaverine used”. Besides, the solubility in methanol result in the data set “solubility” is reported as “Soluble”. Moreover, the “solubility in warm ethanol” value in the data set “solubility” (warm ethanol) is “Soluble”.
In the case of `COc1ccc(Cc2nccc3cc(OC)c(OC)cc23)cc1OC` [papaverine thienyl-3-carboxylate, Papaverine thienyl-3-carboxylate], in the data set “solubility” (hot ethanol), the “solubility in hot ethanol” value was “Soluble”. The solubility in methanol result in “solubility” was “Soluble”. In addition, the solubility in the data set “solubility” (water, read-out: solutions in water, content of product) was no more than 10000 µg/mL.
`COc1ccc(Cc2nccc3cc(OC)c(OC)cc23)cc1OC` [papaverine]: the secondary effects entry in data set [4] was “somnolence, constipation, increased excitability of the reflexes and digestive disorders”.
